Measured values published in patent publication US20150374709A1, “TETRA-SUBSTITUTED NDGA DERIVATIVES VIA ETHER BONDS AND CARBAMATE BONDS AND THEIR SYNTHESIS AND PHARMACEUTICAL USE” (ERIMOS PHARMACEUTICALS LLC, priority 2006, published 2015).

What was measured:
NSCLC cell lines = assay: NCI DTP human tumor cell line screen, NSCLC panel; type: cell-based; conditions: NSCLC (8 cell lines)
Source text: (§1) The United States National Cancer Institute (NCI) provides a developmental therapeutics program (DTP) (http://dtp.nci.nih.gov/branches/btb/ivelsp.html) to screen submitted substances in support of cancer drug discovery. The In Vitro Cell Line Screening Project (IVCLSP) is a dedicated service providing direct support to the DTP anticancer drug discovery program and is designed to screen up to 3,000 compounds per year for potential anticancer activity. The operation of this screen utilizes 60 different human tumor cell lines, representing leukemia, melanoma and cancers of the lung, colon, brain, ovary, breast, prostate, and kidney. The aim is to prioritize for farther evaluation, synthetic compounds or natural product samples showing selective growth inhibition or cell killing of particular tumor cell lines. This screen is unique in that the complexity of a 60 cell line dose response produced by a given compound results in a biological response pattern which can be utilized in pattern recognition algorithms (COMPARE program. See: http://dtp.nci.nih.gov/docs/compare/compare.html). Using these algorithms, it is possible to assign a putative mechanism of action to a test compound, or to determine that the response pattern is unique and not similar to that of any of the standard prototype compounds included in the NCI database. […]

Leukemia cell lines = assay: NCI DTP human tumor cell line screen, leukemia panel; type: cell-based; conditions: Leukemia (6 cell lines)
Source text: as §1

[1] = Non-specific binding to 24-well assay plate without cells; type: in vitro ADME; conditions: single well of a 24-well assay plate without cells, nominal conc. 1.0 μM, single well of 24-well plate without cells
Protocol: To determine the extent of non-specific binding of the sample to the assay plate, the sample solution was incubated under the conditions described above in a single well of a 24-well assay plate. After 90 minutes, the sample was removed from each well for analysis. After all samples were collected, lucifer yellow solution was added to each monolayer at a final concentration of 100 μM. The inserts were placed in a new receiver plate containing transport buffer. After a 30 min. incubation on an orbital shaker (50 rpm) at 37° C., with ambient humidity and CO2, samples were removed from the receiver chamber to measure percent lucifer yellow flux.
The recovery of Compound A from the apical and basolateral chambers (mass balance) as well as from a single well of a 24-well culture plate without cells (non-specific binding) at the end of the incubation is reported in Table 9.

C[C@H](Cc1ccc(OCCCN2CCCCC2)c(OCCCN2CCCCC2)c1)[C@@H](C)Cc1ccc(OCCCN2CCCCC2)c(OCCCN2CCCCC2)c1 [Compound A, 1,4-bis{3,4-bis[3-(piperidin-1-yl)propoxy]phenyl}-2,3-dimethyl-(2R,3S)-butane]
Mean Growth Percent at 10 μM (NSCLC cell lines): −90.92% | Mean Growth Percent at 10 μM (Leukemia cell lines): −81.93% | recovery at 90 min, 1 μM [1]: 13%
